Data taken from PubChem BioAssay AID2743 (NMMLSC, 2010).
Active and inactive are the calls of the source.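 Rule for the calls: active = fitted half-maximal concentration for change in GFP expression of 33 µM or less; inactive = the rest.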

Test: concentration-dependent AGP1-GFP change, TOR pathway – cell-based, flow cytometry, S. cerevisiae, MLPCN hits, dose response (AID 2743)
Settings: S. cerevisiae AGP1-GFP strain, flow cytometry GFP, 3 h; at 33 µM (top of the series)

SMILES	GFP fluorescence (kMESF)
CC1=C(C)/C(=N\OS(=O)(=O)c2ccc(C)cc2)C=CC1=O	31.9 kMESF (inactive)
COc1ccc(C(=O)NC(=S)NNC(=O)CCc2ccccc2)cc1	37.5 kMESF (inactive)
CC(=O)N(C(C)=O)c1ncnc2c1c(-c1ccc(Cl)cc1)nn2C(C)(C)C	36.6 kMESF (inactive)
Cc1ccc(NC(=O)c2cc(N3C(=O)C=CC3=O)ccc2Cl)cc1C	23.9 kMESF (inactive)
CC(=O)Oc1ccc(N2C(=O)C3C4C=CC(O4)C3C2=O)cc1 (configuration not stated)	45.2 kMESF (inactive)
O=C(CS(=O)c1ccccc1[N+](=O)[O-])Oc1ccc(Br)cc1 (configuration not stated)	42.8 kMESF (inactive)
Oc1ccc(N=Nc2ccccc2)o1	49 kMESF (inactive)
CCc1nc2ccccc2c(=O)n1NC(=O)c1c(O)c2ccccc2n(CC)c1=O	18.7 kMESF (inactive)
COc1cccc2sc(Nc3nc(-c4ccccn4)cs3)nc12	34.7 kMESF (inactive)
Nc1nc(N)c2nc(CNc3ccc(C(=O)NC(CCC(=O)O)C(=O)O)cc3)cnc2n1 (configuration not stated)	46 kMESF (inactive)
CC(C)[C@@]1(c2ccccc2)ON(c2ccccc2C(F)(F)F)C1=O	37.1 kMESF (inactive)
N/C(Cc1ccc(Cl)c(Cl)c1)=N\OC(=O)c1cccs1	29.8 kMESF (inactive)
COc1ccccc1OCCCc1c(C)n[nH]c1C	31.1 kMESF (inactive)
COc1ccc(C(=O)/C=C2/C(=O)Nc3ccccc32)cc1OC	43.9 kMESF (inactive)
CNC(CC(=O)c1ccc([N+](=O)[O-])cc1)C(Cl)(Cl)Cl (configuration not stated)	25.2 kMESF (inactive)
O=[N+]([O-])c1cc(CN2CCN(c3cccc(C(F)(F)F)c3)CC2)c2cccnc2c1O	32.2 kMESF (inactive)
Cc1ccc(/C=C/C(=O)c2ccccc(=O)c2O)c(C)c1	28.9 kMESF (inactive)
CN(C)NC(=S)Nc1ccc(S(=O)(=O)N2CCCCC2)cc1	40.4 kMESF (inactive)
C/C(=N\NC(=O)c1cccc(Br)c1)c1ccccn1	42.1 kMESF (inactive)
O=C1c2sc3nc4ccccc4n3c2C(=O)N1c1ccccc1Cl	23.1 kMESF (inactive)
CCCOc1ccc(C(=O)NNC(=S)NC(=O)c2ccccc2)cc1	45.1 kMESF (inactive)
CCCCCCCCC/C(=N\O)c1ccccn1	34.8 kMESF (inactive)
CC(C)(C)n1nc(-c2ccc(F)cc2)c2c(N)ncnc21	40.2 kMESF (inactive)

SMILES	GFP fluorescence (kMESF)
O=C(Nc1nc(-c2ccccn2)cs1)c1cc2ccccc2o1	38.7 kMESF (inactive)
Cc1ccc(N/N=C(\C#N)C(N)=S)c(C)c1	38 kMESF (inactive)
COc1ccc(-c2cc3nc4n(c(=O)c3s2)CCC4)cc1	23.3 kMESF (inactive)
COc1ccc(N=Nc2ccc(O)c3ncccc23)cc1	40.8 kMESF (inactive)
Oc1ccc(COCc2ccccc2)c2cccnc12	36.3 kMESF (inactive)
COc1ccc(C2(C)ON(c3ccccc3C(F)(F)F)C2=O)cc1 (configuration not stated)	36.5 kMESF (inactive)
COc1ccc2c(c1)c1nnc(SC)nc1n2C	17.9 kMESF (inactive)
CCc1cc(C(=O)Nc2nc(-c3ccccn3)cs2)sc1C	29.2 kMESF (inactive)
Cc1ccccc1OCC(=O)NNC(=S)NC(=O)c1ccco1	43.5 kMESF (inactive)
COc1cc(/C=C/c2ccc3c(Br)cc(Br)c(O)c3n2)ccc1O	27.7 kMESF (inactive)
Cc1cc(Br)c2c(c1)/C(=C/C(=O)c1cccs1)C(=O)N2	38.7 kMESF (inactive)
C[C@H]1C[C@@H](C)C(=O)[C@@H]([C@H](O)CC2CC(=O)NC(=O)C2)C1	25.3 kMESF (inactive)
O=C(Nc1nnc(-c2ccc(F)cc2)o1)c1cccc([N+](=O)[O-])c1	44.5 kMESF (inactive)
CC1(C)C[C@H]2C=C(C=O)[C@]3(C=O)C[C@]3(C)[C@H]2C1	36.7 kMESF (inactive)
O=C(Oc1ccnc2cc(Cl)ccc12)N1CCOCC1	35.7 kMESF (inactive)
Oc1c(CN2CCCCC2)cc(Br)c2cccnc12	46.9 kMESF (inactive)
Cc1ccc(/C=C2/SC(=S)N(C3CCCCC3)C2=O)o1	41.3 kMESF (inactive)
Cc1ccc(/C=C2\C(=O)NC(=S)N(c3ccccc3F)C2=O)s1	26.9 kMESF (inactive)
O=C(Nc1nnc(-c2ccc(Cl)cc2)o1)c1ccccc1Br	28.4 kMESF (inactive)
O=C(/C=C/c1ccccc1)c1cc(Br)ccc(=O)c1O	-1.01 kMESF (inactive)
Clc1cnc(N/N=C/c2cccs2)c(Cl)c1	40.5 kMESF (inactive)
COc1cc(/C=C/[N+](=O)[O-])ccc1O	32.3 kMESF (inactive)
CC(=O)SC(C[N+](=O)[O-])c1cn(C(C)=O)c2ccccc12 (configuration not stated)	36.3 kMESF (inactive)

SMILES	GFP fluorescence (kMESF)
Cc1ccccc1N=Nc1ccc(O)c2ncccc12	31.9 kMESF (inactive)
C#CCOCCOCCOCCNc1nc(N2CCN(C(=O)CCCCCCCCCCNC(=O)[C@H](CCCCN)n3cc(CCO)nn3)CC2)nc(N2CCN(C(=O)CCCCCCCCCCNC(=O)[C@H](CCCCN)n3cc(C[C@@H](C)CC)nn3)CC2)n1	51.4 kMESF (inactive)
CC(Oc1ccc(Cl)cc1)C(=O)NNC(=S)NC(=O)c1ccco1 (configuration not stated)	34.2 kMESF (inactive)
COc1ccc([N+](=O)[O-])c(S(=O)(=O)c2ccccc2)n1	47.5 kMESF (inactive)
O=[N+]([O-])c1ccc(S(=O)(=O)c2ccccc2)nc1	44.6 kMESF (inactive)
COc1cc(/C=C2\C(=O)ON=C2c2ccccc2)cc(OC)c1OC	32.3 kMESF (inactive)
CC(Oc1cc2oc(=O)c3c(c2cc1Cl)CCC3)C(=O)NCCN1CCOCC1 (configuration not stated)	34.8 kMESF (inactive)
Cc1ccc(/C=C/C(=O)c2ccc([N+](=O)[O-])o2)cc1	42.9 kMESF (inactive)
O=[N+]([O-])c1cc(Cl)c2cccnc2c1O	22.6 kMESF (inactive)
Cc1ccc(S(=O)(=O)c2ccc([N+](=O)[O-])cn2)cc1	40.7 kMESF (inactive)
C[n+]1ccc(/C=C/c2c[nH]c3ccccc23)cc1	44 kMESF (inactive)
O=C(/C=C/c1ccnc2ccccc12)c1cccs1	45.9 kMESF (inactive)
Cc1ccccc1N1C(=O)C(Cl)=C(N2CCN(c3ccccc3)CC2)C1=O	41.1 kMESF (inactive)
Cc1[nH]n(-c2ccccc2)c(=O)c1C(c1ccccc1[N+](=O)[O-])C(C#N)C#N (configuration not stated)	36.6 kMESF (inactive)
Cc1ccc(N=c2ssnc2Cl)cc1	43.2 kMESF (inactive)
CCOC(=O)c1c(C)oc2c1c(C(c1ccncc1)N1CCOCC1)c(O)c1ccccc12 (configuration not stated)	21.4 kMESF (inactive)
Cc1cccc(N=C2NC(=O)/C(=C/C=C/c3ccco3)S2)c1C	23.3 kMESF (inactive)
CN(C)C(=O)Oc1ccnc2cc(Cl)ccc12	42.3 kMESF (inactive)
Cc1cc(C(=O)Nc2nc(-c3ccccn3)cs2)ccc1[N+](=O)[O-]	44.4 kMESF (inactive)
O=c1c2cc(Cl)ccc2nc(-c2ccc([N+](=O)[O-])cc2)n1O	23 kMESF (inactive)
O=C(/C=C/c1cccc(Cl)c1)c1nc2ccccc2[nH]1	29.7 kMESF (inactive)
CC(=O)N(\C=C/C=C/C=C1\Sc2ccccc2C1=O)c1ccccc1	38.7 kMESF (inactive)
Cc1ccc(N2C(=O)CC(Sc3ncn[nH]3)C2=O)cc1C (configuration not stated)	49.6 kMESF (inactive)

SMILES	GFP fluorescence (kMESF)
COc1ccc([C@]2(C(C)C)ON(c3ccccc3C(F)(F)F)C2=O)cc1	38.8 kMESF (inactive)
COc1cccc(N=Cc2nc(-c3ccccc3)oc2OC(C)=O)c1	35.9 kMESF (inactive)
Cc1ccc(S(=O)(=O)Cc2cc(F)c([N+](=O)[O-])cc2[N+](=O)[O-])cc1	37 kMESF (inactive)
COc1cccc(/C=C/C(=O)c2c(O)cc(C)oc2=O)c1O	43.2 kMESF (inactive)
COc1ccc(N2CCN(C(=O)c3ccccc3)CC2)c([N+](=O)[O-])c1	40.6 kMESF (inactive)
O=C1ON=C(c2ccccc2)/C1=C/c1ccc(-c2ccccc2[N+](=O)[O-])o1	29.1 kMESF (inactive)
O=C(/C=C/c1ccccc1Cl)c1ccccc(=O)c1O	6.58 kMESF (inactive)
O=C(Nc1nnc(-c2ccc(F)cc2)o1)c1cc(Cl)sc1Cl	40.6 kMESF (inactive)
COc1cc(CNC(=O)CCCCCCC(C)C)ccc1O	46.8 kMESF (inactive)
O=C1Nc2ccccc2/C1=C\C(=O)c1ccccc1	38.3 kMESF (inactive)
O=C(OCn1ncc(Br)c(Br)c1=O)c1c(F)cccc1F	42.7 kMESF (inactive)
O=c1[nH]c(-c2ccccn2)nc(C(F)(F)F)c1Br	36.9 kMESF (inactive)
CCCN1CCc2c(sc(NC(=S)NC(=O)c3ccccc3)c2C#N)C1	42 kMESF (inactive)
COc1cc(C=C2C(=O)c3ccccc3C2=O)cc(OC)c1OC	38.9 kMESF (inactive)
Cc1ccc(C(=O)/C=C/C(=O)c2ccc(C)cc2)cc1	43.8 kMESF (inactive)
CC1=NOC(=O)/C1=C\c1ccc(-c2cc(Cl)ccc2Cl)o1	42.3 kMESF (inactive)
O=C1c2cccc3c([N+](=O)[O-])ccc(c23)C(=O)N1CCc1ccccn1	44.1 kMESF (inactive)
COc1ccc(Cl)cc1C(Nc1cccnc1)c1ccc2cccnc2c1O (configuration not stated)	36.3 kMESF (inactive)
O=C1C=CC(=O)N1c1ccc(OC(F)F)cc1	27.8 kMESF (inactive)
Cc1c(NC2=C(Cl)C(=O)N(c3ccccc3)C2=O)c(=O)n(-c2ccccc2)n1C	41.3 kMESF (inactive)
Cc1cccc(N=Nc2ccc(O)c3ncccc23)c1	40.1 kMESF (inactive)
CCOC(=O)CSC1=NC(=O)/C(=C/c2ccc(OC)cc2)S1	43.4 kMESF (inactive)
CCN1/C(=C/C=C/c2sc3ccccc3[n+]2CC)Sc2ccccc21	70 kMESF (inactive)
